In patent US20080095764A1, “Use of genetically-and epigenetically-altered protocadherins in methods of diagnosing, prognosing, and treating cancer” (THE TRUSTEES OF COLUMBIA UNIVERSITY IN THE CITY OF NEW YORK, priority 2004, published 2008):
“Also recorded” adds a separate entry of the source.

Tested on: PCDH8 expression in MDA-MB-435s cells
Test: 5-aza-deoxycytidine treatment, reactivation of PCDH8 expression (RT-PCR)
Format: cell-based, human
Settings: MDA-MB-435s breast cancer cells with methylated PCDH8 promoter, 1 μM 5-aza-deoxycytidine for 72 hours, vs PBS control
Experimental: Cells were lysed in solution D, and RNA was separated by CsCl. RNA was resuspended in sodium acetate, and reprecipitated with ethanol. The pellet was dissolved in DEPC-treated water. RNA was primed with random hexamers, and reverse-transcribed with Superscript II reverse transcriptase (Invitrogen).
cDNA was synthesized from RNA primed with random hexamers (Amersham). Primers used for RT-PCR are below: DIAPH3: […] (SEQ ID NO:74, […] (SEQ ID NO:75). PCDH8: TGGCGGTGTGGAAAGGACA (SEQ ID NO:75), […] (SEQ ID NO:76). For reactivation studies, cells were treated with 1 μM 5-aza-deoxycytidine for 72 hours.
Cells were plated to 20% confluence, and treated with fresh 1 micromolar 5-aza-deoxycytidine for 72 h. RNA and cDNA were prepared from the cells and subjected to PCR.

Nc1ncn([C@H]2C[C@H](O)[C@@H](CO)O2)c(=O)n1 [5-aza-deoxycytidine]
PCDH8 expression after treatment: restored; also recorded: reactivated
